Assay results taken from patent US12157730B2, “Heteroaryl derivative, method for producing same, and pharmaceutical composition comprising same as effective component” (VORONOI INC., priority 2019, dated 2024).

What follows are molecules tested against T1, Ba/F3 cell EGFR Exon20 ins NPH (Homo sapiens, UniProt P00533, INS773NPH) (assay: Ba/F3 cell proliferation suppression, EGFR Exon20 ins NPH). Conditions: GI50 class; Ba/F3 cell line with NPH inserted at Exon20 of EGFR; 72 hours.
T1 construct: expressed in transfected cells; host or cells: Ba/F3
Type: cell-based
Outline: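 Cells (3000–5000/well) plated 24 h before compound, 12-point 3-fold dilutions at 0.3 nM to 50 um final; Ba/F3 lines grown with 5 ng/ml IL-3. Viability by CellTiter-Glo luminescence after 72 h, growth ratio vs control, GI50 from curves; triplicate.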

Row | Structure (SMILES) | Ba/F3 (NPH) Activity
1 | C=CC(=O)Nc1cc(Nc2cc(N3OCC[C@@H]3Cc3ccccc3)ncn2)c(OC)cc1N1CCN(C2CCN(C)CC2)CC1 [compound 970, N-(5-((6-((S)-3-benzylisoxazolidine-2-yl)pyrimidine-4-yl)amino)-4-methoxy-2-(4-(1-methylpiperidine-4-yl)piperazine-1-yl)phenyl)acrylamide] | A (GI50 < 50 nM)
2 | C=CC(=O)Nc1cc(Nc2cc(N3OCC[C@@H]3c3ccc4ccccc4c3)ncn2)c(OC)cc1N1CCC(N2CCN(C(C)=O)CC2)CC1 [compound 556, N-(2-(4-(4-acetylpiperazine-1-yl)piperidine-1-yl)-4-methoxy-5-((6-((R)-3-(naphthalene-2-yl)isoxazolidine-2-yl)pyrimidine-4-yl)amino)phenyl) acrylamide] | B (50 nM ≤ GI50 < 500 nM)
3 | C=CC(=O)Nc1cc(Nc2cc(N3OCC[C@@H]3c3ccc(F)c(Cl)c3)ncn2)c(OC)cc1N1CCC(N2CCC(N(C)C)CC2)CC1 [compound 768, N-(5-((6-((R)-3-(3-chloro-4-fluorophenyl)isoxazolidine-2-yl)pyrimidine-4-yl)amino)-2-(4-(dimethylamino)-[1,4'-bipiperidine]-1'-yl)-4-methoxyphenyl) acrylamide] | A (GI50 < 50 nM)
4 | C=CC(=O)Nc1cc(Nc2cc(N3OCC[C@@H]3c3ccc(F)c(Cl)c3)ncn2)c(OC)cc1N1CCC(N2C[C@@H]3C[C@H]2CO3)CC1 [compound 716, N-(2-(4-((1S,4S)-2-oxa-5-azabicyclo[2.2.1]heptane-5-yl)piperidine-1-yl)-5-((6-((R)-3-(3-chloro-4-fluorophenyl)isoxazolidine-2-yl)pyrimidine-4-yl)amino)-4-methoxyphenyl) acrylamide] | A (GI50 < 50 nM)
5 | C=CC(=O)Nc1cc(Nc2cc(N3OCC[C@@H]3c3cccc(Cl)c3F)ncn2)c(OC)cc1N1CCC(N2CCN(CC)CC2)CC1 [compound 913, N-(5-((6-((R)-3-(3-chloro-2-fluorophenyl)isoxazolidine-2-yl)pyrimidine-4-yl)amino)-2-(4-(4-ethylpiperazine-1-yl)piperidine-1-yl)-4-methoxyphenyl) acrylamide] | A (GI50 < 50 nM)
6 | C=CC(=O)Nc1cc(Nc2cc(N3OCC[C@@H]3c3ccc(F)cc3)ncn2)c(OC)cc1N1CCC(N2CCC(N(C)C)CC2)CC1 [compound 870, N-(2-(4-(dimethylamino)-[1,4'-bipiperidine]-1'-yl)-5-((6-((R)-3-(4-fluorophenyl)isoxazolidine-2-yl)pyrimidine-4-yl)amino)-4-methoxyphenyl) acrylamide] | A (GI50 < 50 nM)
7 | C=CC(=O)Nc1cc(Nc2cc(N3OCC[C@@H]3c3ccc(Cl)c(Cl)c3F)ncn2)c(OC)cc1N1CC[C@@H](N2CCOCC2)C1 [Example 294, N-(5-((6-((R)-3-(3,4-dichloro-2-fluorophenyl)isoxazolidine-2-yl)pyrimidine-4-yl)amino)-4-methoxy-2-((R)-3-morpholinopyrolidine-1-yl)phenyl)acrylamide] | B (50 nM ≤ GI50 < 500 nM)
8 | C=CC(=O)Nc1cc(Nc2cc(N3OCC[C@@H]3c3cccc(C(F)(F)F)c3)ncn2)c(OC)cc1N1CCC(N2C[C@H]3C[C@@H]2CO3)CC1 [compound 943, N-(2-(4-((1R,4R)-2-oxa-5-azabicyclo [2.2.1]heptane-5-yl)piperidine-1-yl)-4-methoxy-5-((6-((R)-3-(3-(trifluoromethyl)phenyl)isoxazolidine-2-yl)pyrimidine-4-yl)amino)phenyl) acrylamide] | A (GI50 < 50 nM)
9 | C=CC(=O)Nc1cc(Nc2cc(N3OCC[C@@H]3c3cccc(Cl)c3F)ncn2)c(OC)cc1N1CCC(N2C[C@@H](C)O[C@@H](C)C2)CC1 [compound 706, N-(5-((6-((R)-3-(3-chloro-2-fluorophenyl)isoxazolidine-2-yl)pyrimidine-4-yl)amino)-2-(4-((2S,6R)-2,6-dimethylmorpholino)piperidine-1-yl)-4-methoxyphenyl) acrylamide] | A (GI50 < 50 nM)
10 | C=CC(=O)Nc1cc(Nc2cc(N3OCC[C@@H]3c3ccc(Cl)cc3F)ncn2)c(OC)cc1N1CCC(N2CCN(CC)CC2)CC1 [compound 409, N-(5-((6-((R)-3-(4-chloro-2-fluorophenyl)isoxazolidine-2-yl)pyrimidine-4-yl)amino)-2-(4-(4-ethylpiperazine-1-yl)piperidine-1-yl)-4-methoxyphenyl) acrylamide] | A (GI50 < 50 nM)
11 | C=CC(=O)Nc1cc(Nc2cc(N3OCC[C@@H]3c3cccc(C#N)c3)ncn2)c(OC)cc1N1CCC(N2CCN(C3CCC3)CC2)CC1 [Example 183, N-(5-((6-((R)-3-(3-cyanophenyl)isoxazolidine-2-yl)pyrimidine-4-yl)amino)-2-(4-(4-cyclobutylpiperazine-1-yl)piperidine-1-yl)-4-methoxyphenyl) acrylamide] | A (GI50 < 50 nM)
12 | C=CC(=O)Nc1cc(Nc2cc(N3OCC[C@@H]3c3cccc(F)c3F)ncn2)c(OC)cc1N1CCC(N2CCN(C)CC2)CC1 [compound 921, N-(5-((6-((R)-3-(2,3-difluorophenyl)isoxazolidine-2-yl)pyrimidine-4-yl)amino)-4-methoxy-2-(4-(4-methylpiperazine-1-yl)piperidine-1-yl)phenyl) acrylamide] | A (GI50 < 50 nM)
13 | C=CC(=O)Nc1cc(Nc2cc(N3OCC[C@@H]3c3cccc(C#N)c3)ncn2)c(OC)cc1N1CCN(C2COC2)CC1 [compound 391, N-(5-((6-((R)-3-(3-cyanophenyl)isoxazolidine-2-yl)pyrimidine-4-yl)amino)-4-methoxy-2-(4-(oxetane-3-yl)piperazine-1-yl)phenyl) acrylamide] | B (50 nM ≤ GI50 < 500 nM)
14 | C=CC(=O)Nc1cc(Nc2cc(N3OCC[C@@H]3c3cccc4ccccc34)ncn2)c(OC)cc1N1CCC(N2CCN(C3CCC3)CC2)CC1 [Example 184, N-(2-(4-(4-cyclobutylpiperazine-1-yl)piperidine-1-yl)-4-methoxy-5-((6-((R)-3-(naphthalene-1-yl)isoxazolidine-2-yl)pyrimidine-4-yl)amino)phenyl)acrylamide] | B (50 nM ≤ GI50 < 500 nM)
15 | C=CC(=O)Nc1cc(Nc2cc(N3OCC[C@@H]3c3cc(F)cc(F)c3)ncn2)c(OC)cc1N1CCC(N2C[C@H]3COC[C@H]3C2)CC1 [Example 105, N-(5-((6-((R)-3-(3,5-difluorophenyl)isoxazolidine-2-yl)pyrimidine-4-yl)amino)-4-methoxy-2-(4-((3aR, 6aS)-tetrahydro-1H-puro[3,4-c]pyrrole-5(3H)-yl)piperidine-1-yl)phenyl)acrylamide] | A (GI50 < 50 nM)
16 | C=CC(=O)Nc1cc(Nc2cc(N3OCC[C@@H]3Cc3cccc(Cl)c3C)ncn2)c(OC)cc1N1CCC(N2CCN(C3CC3)[C@H](C)C2)CC1 [compound 1027, N-(5-((6-((S)-3-(3-chloro-2-methylbenzyl)isoxazolidine-2-yl)pyrimidine-4-yl)amino)-2-(4-((R)-4-cyclopropyl-3-methylpiperazine-1-yl)piperidine-1-yl)-4-methoxyphenyl) acrylamide] | A (GI50 < 50 nM)
17 | C=CC(=O)Nc1cc(Nc2cc(N3OCC[C@@H]3c3cccc(C)c3F)ncn2)c(OC)cc1N1CCN(C2CC2)CC1 [compound 909, N-(2-(4-cyclopropylpiperazine-1-yl)-5-((6-((R)-3-(2-fluoro-3-methylphenyl)isoxazolidine-2-yl)pyrimidine-4-yl)amino)-4-methoxyphenyl) acrylamide] | A (GI50 < 50 nM)
18 | C=CC(=O)Nc1cc(Nc2cc(N3OCC[C@@H]3c3c(F)ccc(F)c3Cl)ncn2)c(OC)cc1N1CCC(N2C[C@H]3C[C@@H]2CO3)CC1 [compound 692, N-(2-(4-((1R,4R)-2-oxa-5-azabicyclo[2.2.1]heptane-5-yl)piperidine-1-yl)-5-((6-((R)-3-(2-chloro-3,6-difluorophenyl)isoxazolidine-2-yl)pyrimidine-4-yl)amino)-4-methoxyphenyl) acrylamide] | A (GI50 < 50 nM)
19 | C=CC(=O)Nc1cc(Nc2cc(N3OCC[C@@H]3c3cccc(OC)c3)ncn2)c(OC)cc1N1CCC(N2CCN(C(C)=O)CC2)CC1 [compound 779, N-(2-(4-(4-acetylpiperazine-1-yl)piperidine-1-yl)-4-methoxy-5-((6-((R)-3-(3-methoxyphenyl)isoxazolidine-2-yl)pyrimidine-4-yl)amino)phenyl)acrylamide] | A (GI50 < 50 nM)
20 | C=CC(=O)Nc1cc(Nc2cc(N3OCC[C@@H]3c3ccc(Cl)c(F)c3)ncn2)c(OC)cc1N1C[C@H]2C[C@@H]1CO2 [compound 863, N-(2-((1R,4R)-2-oxa-5-azabicyclo [2.2.1]heptane-5-yl)-5-((6-((R)-3-(4-chloro-3-fluorophenyl)isoxazolidine-2-yl)pyrimidine-4-yl)amino)-4-methoxyphenyl) acrylamide] | A (GI50 < 50 nM)
21 | C=CC(=O)Nc1cc(Nc2cc(N3OCC[C@@H]3c3cc(F)cc(F)c3)ncn2)c(OC)cc1N1CCC(N2CCN(C(C)C)CC2)CC1 [Example 265, N-(5-((6-((R)-3-(3,5-difluorophenyl)isoxazolidine-2-yl)pyrimidine-4-yl)amino)-2-(4-(4-isopropylpiperazine-1-yl)piperidine-1-yl)-4-methoxyphenyl) acrylamide] | A (GI50 < 50 nM)
22 | C=CC(=O)Nc1cc(Nc2cc(N3OCC[C@@H]3c3c(F)ccc(F)c3F)ncn2)c(OC)cc1N1CCN(C)CC1 [compound 629, N-(4-methoxy-2-(4-methylpiperazine-1-yl)-5-((6-((R)-3-(2,3,6-trifluorophenyl)isoxazolidine-2-yl)pyrimidine-4-yl)amino)phenyl)acrylamide] | B (50 nM ≤ GI50 < 500 nM)
23 | C=CC(=O)Nc1cc(Nc2cc(N3OCC[C@@H]3c3cccc(F)c3F)ncn2)c(OC)cc1N1CCC(N2CCN(CCC)CC2)CC1 [compound 342, N-(5-((6-((R)-3-(2,3-difluorophenyl)isoxazolidine-2-yl)pyrimidine-4-yl)amino)-4-methoxy-2-(4-(4-propylpiperazine-1-yl)piperidine-1-yl)phenyl)acrylamide] | A (GI50 < 50 nM)
